“And” between values parts separate entries of the source, which are not always exact repeats. Equal values may be shown once.
Columns and labels:
[1] = target: T1, Gonadotropin-releasing hormone receptor (Homo sapiens, UniProt P30968); assay: Inhibition of gonadotropin-releasing hormone receptor-stimulated [3H]inositol phosphate hydrolysis; type: functional
T1 sequence (P30968 whole entry): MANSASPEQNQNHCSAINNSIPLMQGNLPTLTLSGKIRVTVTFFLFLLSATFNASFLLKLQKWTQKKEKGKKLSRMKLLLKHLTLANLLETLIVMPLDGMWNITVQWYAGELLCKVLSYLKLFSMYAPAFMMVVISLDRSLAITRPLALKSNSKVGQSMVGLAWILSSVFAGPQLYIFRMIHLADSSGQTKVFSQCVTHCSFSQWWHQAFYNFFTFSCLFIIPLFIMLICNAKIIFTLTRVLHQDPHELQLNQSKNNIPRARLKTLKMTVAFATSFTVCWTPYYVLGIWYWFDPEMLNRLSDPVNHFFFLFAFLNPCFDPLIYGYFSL

[2] = target: T1, Gonadotropin-releasing hormone receptor; assay: Inhibition of [125I]buserelin binding to human pituitary gonadotropin-releasing hormone receptor
[3] = Plasma clearance in dog was determined; type: ADME, organism-based, Canis lupus familiaris; conditions: read-out: Clp
[4] = system: Canis familiaris; assay: Compound was tested for the oral bioavailability in dog; No availability; type: ADME, organism-based, Canis lupus familiaris; conditions: in vivo
[5] = target: T1, Gonadotropin-releasing hormone receptor; assay: Compound was evaluated for the inhibition of Gonadotropin-releasing hormone receptor-stimulated [3H]inositol phosphate hydrolysis using functional assay
[6] = (§1) Oral bioavailability in dog; type: ADME, organism-based, Canis lupus familiaris; conditions: in vivo
[7] = target: T2, Cytochrome P450 3A4 (Homo sapiens, UniProt P08684); assay: Inhibition of cytochrome P450 3A4 enzyme; Range 1-2 uM; type: ADME
[8] = target: T2, Cytochrome P450 3A4; assay: Inhibition of cytochrome P450 3A4 enzyme
[9] = Half life in dog was determined; type: ADME, organism-based, Canis lupus familiaris; conditions: in vivo
[10] = system: Canis familiaris; assay: as §1; type: ADME, organism-based, Canis lupus familiaris; conditions: in vivo

T2 sequence (P08684 whole entry): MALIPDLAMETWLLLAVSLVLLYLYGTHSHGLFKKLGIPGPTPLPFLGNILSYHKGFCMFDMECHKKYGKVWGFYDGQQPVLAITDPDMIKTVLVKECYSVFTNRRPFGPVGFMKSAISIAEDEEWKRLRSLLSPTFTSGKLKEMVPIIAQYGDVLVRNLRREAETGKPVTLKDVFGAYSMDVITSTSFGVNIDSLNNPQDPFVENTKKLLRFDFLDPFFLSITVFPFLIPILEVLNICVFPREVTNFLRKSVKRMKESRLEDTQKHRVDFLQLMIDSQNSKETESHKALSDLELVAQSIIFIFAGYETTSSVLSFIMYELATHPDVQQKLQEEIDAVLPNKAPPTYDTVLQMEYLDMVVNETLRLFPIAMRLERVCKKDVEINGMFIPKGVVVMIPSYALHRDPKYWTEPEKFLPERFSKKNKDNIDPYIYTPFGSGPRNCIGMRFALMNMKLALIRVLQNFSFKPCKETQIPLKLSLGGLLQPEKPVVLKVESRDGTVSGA

Row | IC50 [1] | IC50 [2] | SMILES | further results
1 | 10.9 nM | 0.8 nM | Cc1cc(C)cc(-c2[nH]c3ccc(C(C)(C)C(=O)N4C5CCC4CC5)cc3c2[C@H](C)CNCCCc2cnc3nccnc3c2)c1 | –
2 | 3.9 nM | 0.6 nM | Cc1cc(C)cc(-c2[nH]c3ccc(C(C)(C)C(=O)N4CC5CCC4CC5)cc3c2[C@H](C)CNCCc2ccc3ncoc3c2)c1 | –
3 | 5 nM | 0.9 nM | Cc1cc(C)cc(-c2[nH]c3ccc(C(C)(C)C(=O)N4C5CCC4CC5)cc3c2[C@H](C)CNCCCc2cccc3cnccc23)c1 | –
4 | 2.5 nM | 0.4 nM | Cc1cc(C)cc(-c2[nH]c3ccc(C(C)(C)C(=O)N4C5CCC4CC5)cc3c2[C@H](C)CNCCc2c[nH]c3ncnc-3c2)c1 | –
5 | 11.5 nM | 1.1 nM | Cc1cc(C)cc(-c2[nH]c3ccc(C(C)(C)C(=O)N4C5CCC4CC5)cc3c2[C@H](C)CNCCCCc2ccc3ncccc3c2)c1 | –
6 | 7.9 nM | 0.4 nM | Cc1cc(C)cc(-c2[nH]c3ccc(C(C)(C)C(=O)N4C5CCC4CC5)cc3c2[C@H](C)CNCCCCc2cnc3nccnc3c2)c1 | –
7 | 6.5 nM | 0.4 nM | Cc1cc(C)cc(-c2[nH]c3ccc(C(C)(C)C(=O)N4CC5CCC4CC5)cc3c2[C@H](C)CNCCc2ccc3nc(C(=O)O)[nH]c3c2)c1 | clearance [3]: 24.6 mL/min/kg; F [4]: Not Active
8 | 10.2 nM | 2.1 nM | Cc1cc(C)cc(-c2[nH]c3ccc(C(C)(C)C(=O)N4C5CCC4CC5)cc3c2[C@H](C)CNCCCCc2cncc3ccccc23)c1 | –
9 | 420 nM | 27.5 nM | Cc1cc(C)cc(-c2[nH]c3ccc(C(C)(C)C(=O)N4C5CCC4CC5)cc3c2[C@H](C)CNCc2cccc3ncccc23)c1 (stereo in doubt; 27a) | –
10 | 16.2 nM | 1.1 nM | Cc1cc(C)cc(-c2[nH]c3ccc(C(C)(C)C(=O)N4C5CCC4CC5)cc3c2[C@H](C)CNCCCc2ccnc3nc(C)ccc23)c1 | –
11 | 43.9 nM | 16.5 nM | Cc1cc(C)cc(-c2[nH]c3ccc(C(C)(C)C(=O)N4CC5CCC4CC5)cc3c2[C@H](C)CNCc2ccc3nc[nH]c3c2)c1 | –
12 | – | 0.6 nM | Cc1cc(C)cc(-c2[nH]c3ccc(C(C)(C)C(=O)N4CC5CCC4CC5)cc3c2[C@H](C)CNCCc2ccc3[nH]c(=O)[nH]c3c2)c1 | IC50 [5]: 2 nM; bioavailability [6]: 5%
13 | 131 nM | 2.4 nM | Cc1cc(C)cc(-c2[nH]c3ccc(C(C)(C)C(=O)N4C5CCC4CC5)cc3c2[C@H](C)CNCCCc2cccc3ncccc23)c1 | –
14 | 2.6 nM | 0.4 nM | Cc1cc(C)cc(-c2[nH]c3ccc(C(C)(C)C(=O)N4C5CCC4CC5)cc3c2[C@H](C)CNCCc2ccc3nc[nH]c3c2)c1 | –
15 | 9 nM | 0.3 nM | Cc1cc(C)cc(-c2[nH]c3ccc(C(C)(C)C(=O)N4C5CCC4CC5)cc3c2[C@H](C)CNCCc2ccc3ocnc3c2)c1 | –
16 | 315 nM | 15.3 nM | Cc1cc(C)cc(-c2[nH]c3ccc(C(C)(C)C(=O)N4C5CCC4CC5)cc3c2[C@H](C)CNCc2cccc3ncccc23)c1 (stereo in doubt; 27b) | –
17 | 5 nM | 0.7 nM | Cc1cc(C)cc(-c2[nH]c3ccc(C(C)(C)C(=O)N4CC5CCC4CC5)cc3c2[C@H](C)CNCCc2ccc3[nH]c(CO)nc3c2)c1 | –
18 | 27.9 nM | 0.7 nM | Cc1cc(C)cc(-c2[nH]c3ccc(C(C)(C)C(=O)N4CC5CCC4CC5)cc3c2[C@H](C)CNCCc2ccc3[nH]c(=O)[nH]c3c2F)c1 | –
19 | 2 nM | 0.4 nM | Cc1cc(C)cc(-c2[nH]c3ccc(C(C)(C)C(=O)N4C5CCC4CC5)cc3c2[C@H](C)CNCCc2ccc3ncoc3c2)c1 | IC50 [7]: 1000 nM
20 | 7.6 nM | 0.3 nM | COC(=O)c1nc2ccc(CCNC[C@@H](C)c3c(-c4cc(C)cc(C)c4)[nH]c4ccc(C(C)(C)C(=O)N5CC6CCC5CC6)cc34)cc2[nH]1 | –

Row | IC50 [1] | IC50 [2] | SMILES | further results
21 | 4.5 nM | 0.3 nM | Cc1cc(C)cc(-c2[nH]c3ccc(C(C)(C)C(=O)N4CC5CCC4CC5)cc3c2[C@H](C)CNCCc2c[nH]c3ncnc-3c2)c1 | bioavailability [6]: 16%; IC50 [8]: 4000 nM
22 | 13 nM | 0.4 nM | Cc1cc(C)cc(-c2[nH]c3ccc(C(C)(C)C(=O)N4C5CCC4CC5)cc3c2[C@H](C)CNCCc2ccc3[nH]c(C)nc3c2)c1 | IC50 [8]: 5000 nM
23 | 34.7 nM | 0.6 nM | Cc1cc(C)cc(-c2[nH]c3ccc(C(C)(C)C(=O)N4C5CCC4CC5)cc3c2[C@H](C)CNCCc2cccc3cnccc23)c1 | IC50 [7]: 1000 nM; clearance [3]: 5.8 mL/min/kg; bioavailability [6]: 10%; half-life [9]: 1.9 h
24 | 7.5 nM | 2.1 nM | Cc1cc(C)cc(-c2[nH]c3ccc(C(C)(C)C(=O)N4C5CCC4CC5)cc3c2[C@H](C)CNCCCc2cncc3ccccc23)c1 | –
25 | 101 nM | 0.9 nM | Cc1cc(C)cc(-c2[nH]c3ccc(C(C)(C)C(=O)N4CC5CCC4CC5)cc3c2[C@H](C)CNCCc2ccc3[nH]c(C(F)(F)F)nc3c2)c1 | IC50 [8]: > 10000 nM
26 | 2 nM | 0.6 nM | Cc1cc(C)cc(-c2[nH]c3ccc(C(C)(C)C(=O)N4C5CCC4CC5)cc3c2[C@H](C)CNCCc2ccc3[nH]nnc3c2)c1 | clearance [3]: 37 mL/min/kg; bioavailability [6]: 37%; half-life [9]: 2.7 h
27 | 4.6 nM | 0.7 nM | Cc1cc(C)cc(-c2[nH]c3ccc(C(C)(C)C(=O)N4C5CCC4CC5)cc3c2[C@H](C)CNCCCc2ccc3cnccc3c2)c1 | –
28 | 17.8 nM | 3 nM | Cc1cc(C)cc(-c2[nH]c3ccc(C(C)(C)C(=O)N4C5CCC4CC5)cc3c2[C@H](C)CNCCCc2ccc3ncccc3c2)c1 | –
29 | 2.8 nM | 0.6 nM | Cc1cc(C)cc(-c2[nH]c3ccc(C(C)(C)C(=O)N4CC5CCC4CC5)cc3c2[C@H](C)CNCCc2cnc3nn[nH]c3c2)c1 | –
30 | 4.6 nM | 0.4 nM | Cc1cc(C)cc(-c2[nH]c3ccc(C(C)(C)C(=O)N4C5CCC4CC5)cc3c2[C@H](C)CNCCCCc2cnc3nc[nH]c3c2)c1 | –
31 | – | – | Cc1cc(C)cc(-c2[nH]c3ccc(C(C)(C)C(=O)N4C5CCC4CC5)cc3c2[C@H](C)CNCCCCc2ccncc2)c1 | clearance [3]: 26.5 mL/min/kg; F [10]: 23% and 11%; half-life [9]: 9.5 h
32 | 1.5 nM | 1.1 nM | Cc1cc(C)cc(-c2[nH]c3ccc(C(C)(C)C(=O)N4CC5CCC4CC5)cc3c2[C@H](C)CNCCc2ccc3[nH]ncc3c2)c1 | –
33 | 2.5 nM | 0.3 nM | Cc1cc(C)cc(-c2[nH]c3ccc(C(C)(C)C(=O)N4CC5CCC4CC5)cc3c2[C@H](C)CNCCc2ccc3nn[nH]c3c2)c1 | clearance [3]: 5 mL/min/kg; bioavailability [6]: 20%; half-life [9]: 7.2 h
34 | 5.8 nM | 3.6 nM | Cc1cc(C)cc(-c2[nH]c3ccc(C(C)(C)C(=O)N4C5CCC4CC5)cc3c2[C@H](C)CNCCCCc2ccc3cnccc3c2)c1 | –
35 | 4.5 nM | 0.3 nM | Cc1cc(C)cc(-c2[nH]c3ccc(C(C)(C)C(=O)N4CC5CCC4CC5)cc3c2[C@H](C)CNCCc2ccc3nc[nH]c3c2)c1 | bioavailability [6]: 63%; IC50 [8]: 100 nM
36 | 46.4 nM | 1.9 nM | Cc1cc(C)cc(-c2[nH]c3ccc(C(C)(C)C(=O)N4C5CCC4CC5)cc3c2[C@H](C)CNCCCCc2cccc3ncccc23)c1 | –
37 | 8.4 nM | 0.6 nM | Cc1cc(C)cc(-c2[nH]c3ccc(C(C)(C)C(=O)N4C5CCC4CC5)cc3c2[C@H](C)CNCCCCc2ccnc3nc(C)ccc23)c1 | –
38 | 6.8 nM | 1.5 nM | Cc1cc(C)cc(-c2[nH]c3ccc(C(C)(C)C(=O)N4C5CCC4CC5)cc3c2[C@H](C)CNCCCCc2cccc3cnccc23)c1 | clearance [3]: 49.2 mL/min/kg; bioavailability [6]: 4%; half-life [9]: 1 h
39 | 11.4 nM | 0.5 nM | Cc1cc(C)cc(-c2[nH]c3ccc(C(C)(C)C(=O)N4CC5CCC4CC5)cc3c2[C@H](C)CNCCc2ccc3nsnc3c2)c1 | IC50 [7]: 1000 nM

Source: ChEMBL document CHEMBL1135234, “2-Arylindoles as gonadotropin releasing hormone (GnRH) antagonists: optimization of the tryptamine side chain” (Bioorg Med Chem Lett, 2002)
